Measured values reported in ChEMBL document CHEMBL1201862, “PubChem BioAssay data set” (2004).
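A five-concentration, 48-hour dose response in 96-well plates underlies each endpoint, interpolated linearly between surrounding concentrations. Here, GI50 denotes the concentration required for 50% inhibition of growth.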 Calls of active or inactive are those of the source. Rule as the data show it: active = GI50 up to about 1.1 µM and inactive = higher.

Assays:
Assay in all cases: inhibition of tumour cell growth, NCI panel, 48 h
SNB-19 = system: SNB-19
NCI-H460 = system: NCI-H460
MCF7 = system: MCF7
LOX IMVI = system: LOX IMVI
NCI-H226 = system: NCI-H226
CCRF-CEM = system: CCRF-CEM
SW-620 = system: SW-620
NCI-H522 = system: NCI-H522
RPMI-8226 = system: RPMI-8226
Hs-578T = system: Hs-578T
OVCAR-3 = system: OVCAR-3
SK-MEL-5 = system: SK-MEL-5
EKVX = system: EKVX
Malme-3M = system: Malme-3M
DU-145 = system: DU-145
SK-MEL-28 = system: SK-MEL-28
SF-539 = system: SF-539
HL-60 = system: HL-60
A498 = system: A498
A549 = system: A549
COLO 205 = system: COLO 205
SK-OV-3 = system: SK-OV-3
OVCAR-8 = system: OVCAR-8
KM12 = system: KM12
OVCAR-5 = system: OVCAR-5
MDA-MB-435 = system: MDA-MB-435
ACHN = system: ACHN
MDA-N = system: MDA-N
NCI/ADR-RES = system: NCI/ADR-RES
MDA-MB-231 = system: MDA-MB-231
TK-10 = system: TK-10
OVCAR-4 = system: OVCAR-4
SK-MEL-2 = system: SK-MEL-2
T47D = system: T47D
BT-549 = system: BT-549
IGROV-1 = system: IGROV-1
HCC 2998 = system: HCC 2998
HCT-116 = system: HCT-116
UACC-257 = system: UACC-257
M14 = system: M14
K562 = system: K562
786-0 = system: 786-0
PC-3 = system: PC-3
NCI-H23 = system: NCI-H23
UACC-62 = system: UACC-62
U-251 = system: U-251
HOP-92 = system: HOP-92
CAKI-1 = system: CAKI-1
HT-29 = system: HT-29
UO-31 = system: UO-31
SF-268 = system: SF-268
SN12C = system: SN12C
HCT-15 = system: HCT-15
SR = system: SR
SF-295 = system: SF-295
MOLT-4 = system: MOLT-4
SNB-75 = system: SNB-75
HOP-62 = system: HOP-62

Q: For O=c1cnn(C2OC(CO)C(O)C(F)C2O)c(=O)[nH]1 (configuration not stated), which GI50 (SNB-19) is on record?
A: > 100 µM (inactive)

Q: And the GI50 (NCI-H460)?
A: > 100 µM (inactive)

Q: And the GI50 (MCF7)?
A: > 100 µM (inactive)

Q: What about the GI50 (LOX IMVI) of the same compound?
A: > 100 µM (inactive)

Q: And the GI50 (NCI-H226)?
A: > 100 µM (inactive)

Q: And the GI50 (CCRF-CEM)?
A: > 100 µM (inactive)

Q: And the GI50 (SW-620)?
A: > 100 µM (inactive)

Q: What about the GI50 (NCI-H522) of the same compound?
A: > 100 µM (inactive)

Q: And the GI50 (RPMI-8226)?
A: > 100 µM (inactive)

Q: What about the GI50 (Hs-578T) of the same compound?
A: > 100 µM (inactive)

Q: And the GI50 (OVCAR-3)?
A: > 100 µM (inactive)

Q: And the GI50 (SK-MEL-5)?
A: > 100 µM (inactive)

Q: What about the GI50 (EKVX) of the same compound?
A: > 100 µM (inactive)

Q: What about the GI50 (Malme-3M) of the same compound?
A: > 100 µM (inactive)

Q: What about the GI50 (DU-145) of the same compound?
A: > 100 µM (inactive)

Q: And the GI50 (SK-MEL-28)?
A: > 100 µM (inactive)

Q: And the GI50 (SF-539)?
A: > 100 µM (inactive)

Q: And the GI50 (HL-60)?
A: > 100 µM (inactive)

Q: And the GI50 (A498)?
A: 40.8 µM (inactive)

Q: What about the GI50 (A549) of the same compound?
A: > 100 µM (inactive)

Q: What about the GI50 (COLO 205) of the same compound?
A: > 100 µM (inactive)

Q: What about the GI50 (SK-OV-3) of the same compound?
A: > 100 µM (inactive)

Q: What about the GI50 (OVCAR-8) of the same compound?
A: > 100 µM (inactive)

Q: What about the GI50 (KM12) of the same compound?
A: > 100 µM (inactive)

Q: And the GI50 (OVCAR-5)?
A: > 100 µM (inactive)

Q: What about the GI50 (MDA-MB-435) of the same compound?
A: > 100 µM (inactive)

Q: And the GI50 (ACHN)?
A: > 100 µM (inactive)

Q: What about the GI50 (MDA-N) of the same compound?
A: > 100 µM (inactive)

Q: And the GI50 (NCI/ADR-RES)?
A: > 100 µM (inactive)

Q: And the GI50 (MDA-MB-231)?
A: > 100 µM (inactive)

Q: What about the GI50 (TK-10) of the same compound?
A: > 100 µM (inactive)

Q: What about the GI50 (OVCAR-4) of the same compound?
A: > 100 µM (inactive)

Q: What about the GI50 (SK-MEL-2) of the same compound?
A: > 100 µM (inactive)

Q: And the GI50 (T47D)?
A: > 100 µM (inactive)

Q: And the GI50 (BT-549)?
A: > 100 µM (inactive)

Q: And the GI50 (IGROV-1)?
A: > 100 µM (inactive)

Q: And the GI50 (HCC 2998)?
A: > 100 µM (inactive)

Q: What about the GI50 (HCT-116) of the same compound?
A: > 100 µM (inactive)

Q: And the GI50 (UACC-257)?
A: > 100 µM (inactive)

Q: And the GI50 (M14)?
A: > 100 µM (inactive)

Q: And the GI50 (K562)?
A: > 100 µM (inactive)

Q: And the GI50 (786-0)?
A: > 100 µM (inactive)

Q: What about the GI50 (PC-3) of the same compound?
A: > 100 µM (inactive)

Q: And the GI50 (NCI-H23)?
A: > 100 µM (inactive)

Q: What about the GI50 (UACC-62) of the same compound?
A: > 100 µM (inactive)

Q: What about the GI50 (U-251) of the same compound?
A: > 100 µM (inactive)

Q: And the GI50 (HOP-92)?
A: > 100 µM (inactive)

Q: What about the GI50 (CAKI-1) of the same compound?
A: > 100 µM (inactive)

Q: What about the GI50 (HT-29) of the same compound?
A: > 100 µM (inactive)

Q: And the GI50 (UO-31)?
A: > 100 µM (inactive)

Q: And the GI50 (SF-268)?
A: > 100 µM (inactive)

Q: What about the GI50 (SN12C) of the same compound?
A: > 100 µM (inactive)

Q: And the GI50 (HCT-15)?
A: > 100 µM

Q: And the GI50 (SR)?
A: 8.55 µM (inactive)

Q: What about the GI50 (SF-295) of the same compound?
A: > 100 µM (inactive)

Q: With O=C1N(C2CCCCC2)C(=O)N1C1CCCCC1 as the compound, how does the GI50 (SNB-19) read?
A: 1.46 µM (inactive)

Q: What about the GI50 (NCI-H460) of the same compound?
A: 0.321 µM (active)

Q: What about the GI50 (MCF7) of the same compound?
A: 0.723 µM (active)

Q: And the GI50 (LOX IMVI)?
A: 0.209 µM (active)

Q: What about the GI50 (NCI-H226) of the same compound?
A: 0.416 µM (active)

Q: What about the GI50 (MOLT-4) of the same compound?
A: 0.0132 µM (active)

Q: And the GI50 (CCRF-CEM)?
A: 0.04 µM (active)

Q: What about the GI50 (SW-620) of the same compound?
A: 1.95 µM (inactive)

Q: What about the GI50 (NCI-H522) of the same compound?
A: 0.328 µM (active)

Q: And the GI50 (SNB-75)?
A: 0.142 µM (active)

Q: What about the GI50 (Hs-578T) of the same compound?
A: 0.0409 µM (active)

Q: And the GI50 (OVCAR-3)?
A: 1.87 µM (inactive)

Q: What about the GI50 (SK-MEL-5) of the same compound?
A: 0.439 µM (active)

Q: And the GI50 (EKVX)?
A: 8.61 µM (inactive)

Q: And the GI50 (Malme-3M)?
A: 1.99 µM (inactive)

Q: And the GI50 (DU-145)?
A: 0.126 µM (active)

Q: And the GI50 (SK-MEL-28)?
A: 1.19 µM (inactive)

Q: And the GI50 (SF-539)?
A: 1.22 µM (inactive)

Q: And the GI50 (HL-60)?
A: < 0.01 µM (active)

Q: And the GI50 (A498)?
A: 0.16 µM (active)

Q: And the GI50 (A549)?
A: 0.245 µM (active)

Q: What about the GI50 (COLO 205) of the same compound?
A: 0.467 µM (active)

Q: What about the GI50 (SK-OV-3) of the same compound?
A: 5.15 µM (inactive)

Q: What about the GI50 (OVCAR-8) of the same compound?
A: 0.0929 µM (active)

Q: And the GI50 (KM12)?
A: 0.285 µM (active)

Q: What about the GI50 (OVCAR-5) of the same compound?
A: 1.83 µM (inactive)

Q: What about the GI50 (MDA-MB-435) of the same compound?
A: 2.08 µM (inactive)

Q: What about the GI50 (ACHN) of the same compound?
A: 0.0562 µM (active)

Q: And the GI50 (MDA-N)?
A: 3.97 µM (inactive)

Q: What about the GI50 (NCI/ADR-RES) of the same compound?
A: 0.133 µM (active)

Q: What about the GI50 (MDA-MB-231) of the same compound?
A: 1.33 µM (inactive)

Q: And the GI50 (TK-10)?
A: 2.34 µM (inactive)

Q: And the GI50 (OVCAR-4)?
A: 1.68 µM (inactive)

Q: What about the GI50 (SK-MEL-2) of the same compound?
A: 1.49 µM (inactive)

Q: What about the GI50 (T47D) of the same compound?
A: 0.56 µM (active)

Q: What about the GI50 (BT-549) of the same compound?
A: 0.0272 µM (active)

Q: What about the GI50 (IGROV-1) of the same compound?
A: 17.5 µM (inactive)

Q: What about the GI50 (HOP-62) of the same compound?
A: 0.425 µM (active)

Q: And the GI50 (HCC 2998)?
A: 1.16 µM (inactive)

Q: What about the GI50 (HCT-116) of the same compound?
A: 0.113 µM (active)

Q: What about the GI50 (UACC-257) of the same compound?
A: 0.679 µM (active)

Q: And the GI50 (M14)?
A: 1.24 µM (inactive)

Q: What about the GI50 (K562) of the same compound?
A: 0.0875 µM (active)

Q: And the GI50 (786-0)?
A: 0.362 µM (active)

Q: What about the GI50 (PC-3) of the same compound?
A: 0.233 µM (active)

Q: What about the GI50 (NCI-H23) of the same compound?
A: 0.83 µM (active)

Q: And the GI50 (UACC-62)?
A: 0.21 µM (active)

Q: What about the GI50 (U-251) of the same compound?
A: 0.388 µM (active)

Q: And the GI50 (HOP-92)?
A: 0.149 µM (active)

Q: What about the GI50 (CAKI-1) of the same compound?
A: 1.04 µM (active)

Q: What about the GI50 (HT-29) of the same compound?
A: 0.701 µM (active)

Q: And the GI50 (UO-31)?
A: < 0.0105 µM (active)

Q: What about the GI50 (SF-268) of the same compound?
A: 0.75 µM (active)

Q: And the GI50 (SN12C)?
A: 0.272 µM (active)

Q: What about the GI50 (HCT-15) of the same compound?
A: 0.257 µM

Q: What about the GI50 (SR) of the same compound?
A: 0.232 µM (active)

Q: What about the GI50 (SF-295) of the same compound?
A: 0.29 µM (active)
